Each structure is given as a SMILES string.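 96-well plates; 48 h exposure; 5 concentrations. Endpoints by linear interpolation between flanking doses. Not reached: highest tested concentration assigned. GI50 marks 50% less growth. TGI is the concentration that stops growth completely.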

The subject of the first experiment is OVCAR-8 ovarian. In words: NCI anticancer screen, dose series, 48 h.
Turning to `CN(C)c1ccc2c(NCCCCCCNc3ccnc4cc(N(C)C)ccc34)ccnc2c1`, the TGI was 20.5 µM.
For `Nc1cc(=O)[nH]c(SC2=NC(N)CC(O)C2)n1` (configuration not stated), the TGI was over 100 µM.
Regarding `CC(=O)[O][Pb]([O]C(C)=O)([c]1ccccc1)[c]1ccccc1`, the GI50 was 7.15 µM and the TGI is over 100 µM.
`CN1CCc2c1nc(-c1ccccc1)c1c2N(C)CC1` showed a TGI of over 100 µM.
In the case of `CCC[CH2][Sn]([CH2]CCC)([O]C(C)=O)[O]C(C)=O`, the GI50 was 1.9 µM and the TGI turned out to be 4.6 µM.
The like results for `CN(C)CCCNC(=O)c1cc(NC(=O)CCNS(=O)(=O)c2ccc3c(c2)C(=O)c2ccccc2C3=O)cn1C` were, in that order, over 100 µM and over 100 µM.
In turn, `COC(=O)CCC(=O)N1Cc2cc(C)ccc2N(C(=O)CCC(=O)OC)Cc2cc(C)ccc21` returned a TGI of over 100 µM.
On to `C=C1C(=O)O[C@H]2C[C@@H](C)[C@@H]3CC(=O)OC[C@@]3(C)CC12` (some centres not stated), for which the TGI was 48.3 µM.
Turning to `c1ccc2[nH]c(-c3ccc(N4CCN(c5ccc(-c6nc7ccccc7[nH]6)cc5)CC4)cc3)nc2c1`, the GI50 is over 100 µM and the TGI was over 100 µM.
In turn, `CS(=O)(=O)CC1=Nc2nnc(CCCCCCCc3nnc4n3C(=O)C(CS(C)(=O)=O)=N4)n2C1=O` registered a TGI of over 100 µM.
Take `COc1ccccc1[N-]C(C1=C([O-])c2ccccc2C1=O)c1ccccc1.COc1ccccc1[N-]C(C1=C([O-])c2ccccc2C1=O)c1ccccc1.[Cu+2]` (configuration not stated): the GI50 is 7.52 µM and the TGI is over 100 µM.
Turning to `O=C(NCCCCCCNC(=O)c1cccc2ccccc12)c1cccc2ccccc12`, the TGI is over 100 µM.
Same read-out and setting: under `COC12C=CC(CC1)c1c(O)ccc(O)c12` (configuration not stated) stands over 70.1 µM.
With `CC1=C2CCCC2C/C(=N/Nc2ccc([N+](=O)[O-])cc2[N+](=O)[O-])CC1` (configuration not stated), the TGI is over 100 µM.
`CC1CC2C(=O)NC(=O)C2c2[nH]c3ccccc3c21` (configuration not stated) came in with a TGI of over 100 µM.
The molecule `Cc1ccc2c(c1)C1(C)OC(CC(N)C1O)O2` (configuration not stated) had a TGI of over 100 µM.
For `COC(=O)[C@@H]1CSC(=S)N1C(=O)C[C@H]1CC=CC[C@H]1CC(=O)Sc1ccccc1`, the TGI amounted to 50.6 µM.
Turning to `COc1cc(Cn2cc3c(c2)-c2oncc2CC3)cc(OC)c1OC`, the GI50 was 0.0548 µM and the TGI was over 100 µM.
Turning to `CN(C)c1ccc2nc3ccc(=[N+](C)C)cc-3oc2c1`, the GI50 is 2.13 µM and the TGI was found to be 7.36 µM.
As for `CC1(Sc2ccccc2)CN(Cc2ccccc2)C1=O` (configuration not stated), the TGI is over 100 µM.
For the molecule `C=C1C(=O)OC2CC3(C)C=CC(=O)C(=C)C3CC12` (configuration not stated), the TGI is 4.92 µM.
Turning to `COc1cccc(OC(=O)c2ccccc2Nc2ccnc(C(F)(F)F)c2)c1`, the GI50 was 3.63 µM and the TGI was 29.3 µM.
With `Cc1ccc(C(=O)Nc2ccc(S(=O)(=O)O)c3cc(S(=O)(=O)O)cc(S(=O)(=O)O)c23)cc1NC(=O)c1cccc(N)c1`, the TGI was over 100 µM.
`CCOP(=O)(OCC)C1CCCCOC1=O` (configuration not stated) gave a TGI of over 100 µM.
For the molecule `COc1ccc(Cn2nc(-c3cc(OC)c(OC)c(OC)c3)c3c2CCc2cnoc2-3)cc1OC`, the GI50 is 19.6 µM and the TGI is over 100 µM.

The test system of the next experiment is SK-MEL-2 melanoma. The experiment in a line: NCI anticancer screen, dose series, 48 h.
`CN(C)c1ccc2c(NCCCCCCNc3ccnc4cc(N(C)C)ccc34)ccnc2c1`: the TGI is 82.5 µM.
`Nc1cc(=O)[nH]c(SC2=NC(N)CC(O)C2)n1` (configuration not stated) came in with a TGI of over 100 µM.
Regarding `CC(=O)[O][Pb]([O]C(C)=O)([c]1ccccc1)[c]1ccccc1`, the GI50 is 1.73 µM and the TGI came out at 3.75 µM.
In turn, `CN1CCc2c1nc(-c1ccccc1)c1c2N(C)CC1` showed a TGI of over 100 µM.
Consider `CCC[CH2][Sn]([CH2]CCC)([O]C(C)=O)[O]C(C)=O`, for which the GI50 is 0.542 µM and the TGI amounted to 1.95 µM.
For the molecule `CN(C)CCCNC(=O)c1cc(NC(=O)CCNS(=O)(=O)c2ccc3c(c2)C(=O)c2ccccc2C3=O)cn1C`, the GI50 was over 100 µM and the TGI was over 100 µM.
`COC(=O)CCC(=O)N1Cc2cc(C)ccc2N(C(=O)CCC(=O)OC)Cc2cc(C)ccc21`: the TGI is over 100 µM.
With `C=C1C(=O)O[C@H]2C[C@@H](C)[C@@H]3CC(=O)OC[C@@]3(C)CC12` (some centres not stated), the TGI is over 100 µM.
`O=C(NCCCCCCNC(=O)c1cccc2ccccc12)c1cccc2ccccc12` displayed a TGI of 34.5 µM.
For the molecule `COC12C=CC(CC1)c1c(O)ccc(O)c12` (configuration not stated), the TGI was over 76.3 µM.
In the case of `CC1=C2CCCC2C/C(=N/Nc2ccc([N+](=O)[O-])cc2[N+](=O)[O-])CC1` (configuration not stated), the TGI was over 100 µM.
`CC1CC2C(=O)NC(=O)C2c2[nH]c3ccccc3c21` (configuration not stated): the TGI is over 100 µM.
Take `Cc1ccc2c(c1)C1(C)OC(CC(N)C1O)O2` (configuration not stated): the TGI is over 100 µM.
Same read-out and setting: under `COC(=O)[C@@H]1CSC(=S)N1C(=O)C[C@H]1CC=CC[C@H]1CC(=O)Sc1ccccc1` stands 52 µM.
For the molecule `COc1cc(Cn2cc3c(c2)-c2oncc2CC3)cc(OC)c1OC`, the GI50 was 7.2 µM and the TGI came to 79.3 µM.
On to `CN(C)c1ccc2nc3ccc(=[N+](C)C)cc-3oc2c1`, for which the GI50 was 2.38 µM and the TGI turned out to be 11.1 µM.
Take `CC1(Sc2ccccc2)CN(Cc2ccccc2)C1=O` (configuration not stated): the TGI was over 100 µM.
Turning to `C=C1C(=O)OC2CC3(C)C=CC(=O)C(=C)C3CC12` (configuration not stated), the TGI was 3.13 µM.
In the case of `COc1cccc(OC(=O)c2ccccc2Nc2ccnc(C(F)(F)F)c2)c1`, the GI50 was 34.4 µM and the TGI is over 100 µM.
`Cc1ccc(C(=O)Nc2ccc(S(=O)(=O)O)c3cc(S(=O)(=O)O)cc(S(=O)(=O)O)c23)cc1NC(=O)c1cccc(N)c1` gave a TGI of over 100 µM.
With `CCOP(=O)(OCC)C1CCCCOC1=O` (configuration not stated), the TGI is over 100 µM.
In the case of `COc1ccc(Cn2nc(-c3cc(OC)c(OC)c(OC)c3)c3c2CCc2cnoc2-3)cc1OC`, the GI50 was 6.06 µM and the TGI was over 100 µM.

The subject of the next experiment is SK-MEL-28 melanoma. In words: NCI anticancer screen, dose series, 48 h.
For `CN(C)c1ccc2c(NCCCCCCNc3ccnc4cc(N(C)C)ccc34)ccnc2c1`, the TGI was 50.8 µM.
Take `Nc1cc(=O)[nH]c(SC2=NC(N)CC(O)C2)n1` (configuration not stated): the TGI was over 100 µM.
As to `CC(=O)[O][Pb]([O]C(C)=O)([c]1ccccc1)[c]1ccccc1`, the GI50 is 6.72 µM and the TGI was over 100 µM.

These data come from PubChem BioAssay (NCI).
